According to patent US20250186321A1, “FORMULATION USING AMINO ACID AND CARBOXYLIC ACID, ORGANIC SALT, AND COMPOSITION COMPRISING SAME AND USE THEREOF” (MIYOSHI OIL & FAT CO., LTD., priority 2021, published 2025):

Experiments:
[1] = Appearance of formulation (state at 25° C.); type: physicochemical; conditions: formulation at the compounding molar ratio listed
[2] = Appearance of formulation (state at 25° C.); type: physicochemical; conditions: 25° C.
Experimental: Formulations 1 to 427 shown in Tables 1A to 1D were prepared by the above-described method using the components (A) and (B) at the compounding molar ratios shown in the tables, and their states at 25° C. were observed.

[3] = Water retention evaluation (moisture reduction rate); type: physicochemical; conditions: for Moisture eduction rate / Moisture content before test (A): 80 wt. % aqueous solution; for Moisture eduction rate: 24 hours at 35° C. and 25% RH, calculated from A and B; for Moisture content before test (A): Karl Fischer; for Presence or absence of hydrates: left until the moisture content remained unchanged, based on final moisture content; for n-hydrate: number of hydrated water based on final moisture content
Experimental: 80 wt. % aqueous solutions of the formulations (organic salts) of the working examples 428 to 459 and comparative examples 1 to 5 in Tables 2A and 2B were prepared, and the water contents were measured using a Karl Fischer moisture meter (CA-200 manufactured by Mitsubishi Chemical Analytech Co., Ltd.). It was confirmed that the water contents of them were 20.0 wt. % (moisture content before test: A). Each of the 1.0 g samples was added to a screw tube, and left uncovered to stand still for 24 hours in a constant temperature and humidity bath (KCL-2000W manufactured by Tokyo Rikakikai Co., Ltd.) which was set at 35° C. and 25% RH. Moisture contents after being left for 24 hours were measured again (moisture content after test: B) to evaluate their water retention property by using the following formula for calculating the moisture reduction rates. After that, it was left to stand still until the moisture content remained unchanged, and determinations of the hydrate and the number of hydrated water were made based on the final moisture contents. • Moisture content before test: A (%) • Moisture content after test: B (%)

[4] = tested on: Staphylococcus aureus; experiment: Antibacterial property evaluation 2 (halo test 1); type: cell-based; conditions: JISL1902
Description: The following reagents, etc, were used for minimum inhibitory concentration (MIC) measurement and halo test. • Staphylococcus aureus: strain of NBRC15035, NITE • Escherichia coli: strain of […], NITE • Potassium lactate manufactured by Fujifilm Wako Pure Chemical • Medium of Muller-Hinton broth: Becton, Dickinson and Company • Media for revival of L-dried specimens “DAIGO” manufactured by Fujifilm Wako Pure Chemical • Calcium chloride manufactured by Fuji Film Wako Pure Chemical • Magnesium chloride manufactured by Fuji Film Wako Pure Chemical • […] Snow Brand • Meat extract: from Solabia Biokar Diagnostics • Peptone: from Solabia Biokar Diagnostics • Sodium chloride manufactured by Fuji Film Wako Pure Chemical • Agar manufactured by Fuji Film Wako Pure Chemical […]

[5] = Component (A) amino acid; cited from earlier work
[6] = Hygroscopicity evaluation (moisture content); type: physicochemical; conditions: for Hygroscopicity test Moisture content after test: dried in vacuum at 60° C. for 18 hours, then 1 month at room temperature, Karl Fischer; for Presence or absence of hydrates / n-hydrate: hygroscopicity test, Table 3
Experimental: The working examples 460 to 470 and the comparative example 6 in Table 3 were completely dried in a vacuum dryer at 60° C. for 18 hours, and then left to stand still at room temperature for 1 month whose moisture contents were then measured using a Karl Fischer moisture meter (CA-200 manufactured by Mitsubishi Chemical Analytech Co., Ltd.) to evaluate their hygroscopicity.

[7] = Solubility evaluation of polyoxyethylene alkyl ether (AE) in the formulations; type: physicochemical; conditions: polyoxyethylene alkyl ether (Peletex 2465); left at 25° C. for 24 hours, visual
Experimental: Into 20 wt. % aqueous solutions of the formulations (organic salts) shown in Table 10 are dissolved methylparaben (manufactured by Tokyo Kasei, hereinafter, paraben) at 1.0 wt. %, 0.5 wt. % and 0.25 wt. % at 80° C. to prepare the respective antibacterial compositions.
Polyoxyethylene alkyl ether (hereinafter referred to as AE) which is an antiviral substance recognized to be effective against viruses was also subjected to the similar procedure to evaluate the solubility based on the above-mentioned criteria. As the AE, Peletex 2465, manufactured by Miyoshi Oil & Fats Co., Ltd., was used. (Table 10)

[8] = Adhesiveness evaluation (adhesion rate to filter paper); type: physicochemical; conditions: vacuum dehydration for 8 hours at 60° C.
Experimental: The adhesion rates of the samples were each calculated from the weight change of the filter paper (Table 9). As a blank test, 100 μL of water was dropped on the filter paper, and this filter paper was dried in a vacuum. The change in weight was measured and used as the correction value.

[9] = components (A) and (B) at the compounding molar ratio shown

| Structure (SMILES) | state at 25° C. ([1]; Tables 2A/2B) | state at 25° C. [2, 9] | Moisture eduction rate [3] | Moisture content before test (A) [3] | Presence or absence of hydrates [3] | further results |
| --- | --- | --- | --- | --- | --- | --- |
| NCCCC(=O)O.O=C(O)[C@H](O)[C@@H](O)[C@H](O)[C@H](O)CO [Formulation 175] | Liquid | Liquid | 36.7% | 20.0% | Present | state at 25° C. ([2]; components (A) and (B) at the compounding molar ratio shown, listed as Working example 175): liquid; n-hydrate [3]: Mono- |
| CCO [Formulation 436] |  |  |  |  |  | Halo test 1: Presence or absence of halo ([4]; Concentration 10 Wt. % aqueous solution on filter paper): Absent; Halo test 1: Presence or absence of halo ([4]; Concentration 50 Wt. % aqueous solution on filter paper): Absent; state at 25° C. [2]: Liquid |
| N[C@@H](Cc1c[nH]c2ccccc12)C(=O)O [tryptophan] |  |  |  |  |  | isoelectric points of amino acids (values in parentheses) [5]: (5.89) |
| O=C(O)[C@@H]1CCCN1 [proline] |  |  |  |  |  | isoelectric points of amino acids (values in parentheses) [5]: (6.30) |
| NCC(=O)O.O=C(O)CC(O)(CC(=O)O)C(=O)O [Formulation 142] | Liquid | Liquid | 32.2% | 20.0% | Present | state at 25° C. ([2]; components (A) and (B) at the compounding molar ratio shown, listed as Working example 142): liquid; n-hydrate [3]: Hemi- |
| NCCCC[C@H](N)C(=O)O.O=C(O)[C@H](O)[C@@H](O)[C@H](O)[C@H](O)CO.O=C(O)[C@H](O)[C@@H](O)[C@H](O)[C@H](O)CO [Formulation 30] | Liquid | Liquid | 42.7% | 20.0% | Present | state at 25° C. ([2]; components (A) and (B) at the compounding molar ratio shown, listed as Working example 30): liquid |
| N[C@@H](Cc1ccccc1)C(=O)O [phenylalanine] |  |  |  |  |  | isoelectric points of amino acids (values in parentheses) [5]: (5.48) |
| CCCCCC(=O)O.NCCCC[C@H](N)C(=O)O [Formulation 4] | Solid | Solid | 60.2% | 20.0% | Absent |  |
| CCCCCCCC/C=C\CCCCCCCC(=O)O.NCCCC[C@H](N)C(=O)O [Formulation 7] |  | Solid |  |  |  | state at 25° C. ([1]; Table 3): Solid; Hygroscopicity test Moisture content after test [6]: 2.1%; Presence or absence of hydrates [6]: Present; n-hydrate [6]: Multihydrate |
| CC(O)C(=O)O.N=C(N)NCCC[C@H](N)C(=O)O [Formulation 52] | Liquid | Liquid | 24.3% | 20.0% | Present | n-hydrate [3]: Mono- |
| CCCCCCCC/C=C\CCCCCCCC(=O)O.CCCCCCCC/C=C\CCCCCCCC(=O)O.N=C(N)NCCC[C@H](N)C(=O)O [Formulation 70] |  | Liquid |  |  |  | state at 25° C. ([1]; Table 3): Liquid; Hygroscopicity test Moisture content after test [6]: 9.4%; Presence or absence of hydrates [6]: Present; n-hydrate [6]: Multihydrate |
| NCCCC[C@H](N)C(=O)O.O=C(O)[C@H](O)[C@@H](O)[C@H](O)[C@H](O)CO [Formulation 9] | Liquid | Liquid | 22.9% | 20.0% | Present | state at 25° C. ([2]; components (A) and (B) at the compounding molar ratio shown, listed as Working example 9): liquid; n-hydrate [3]: Dihydrate |
| CCCCn1cc[n+](C)c1.F[B-](F)(F)F [Formulation 431] | Liquid |  | 71.5% | 20.0% | Absent | Solubility into 20 wt. % aqueous solution of the formulations: AE [7]: ⊚ (1.0 wt. % or more; no crystal precipitation was observed); state at 25° C. [2]: Solid |
| CCCC[N+](CCCC)(CCCC)CCCC.[Br-] [Formulation 430] | Solid |  | 70.0% | 20.0% | Absent | Solubility into 20 wt. % aqueous solution of the formulations: AE [7]: ⊚ (1.0 wt. % or more; no crystal precipitation was observed); state at 25° C. [2]: Solid |
| CCO [ethanol, reference compound] |  |  |  |  |  | adhesion to the filter paper [8]: did not adhere to the filter paper; presence or absence of halos (halo test 1) ([4]; Staphylococcus aureus): no halo was observed |
| Cl.NCCCC[C@H](N)C(=O)O [Formulation 429] | Solid |  | 68.2% | 20.0% | Absent |  |
| N=C(N)NCCC[C@H](N)C(=O)O.O=C(O)CC(O)(CC(=O)O)C(=O)O [Formulation 58] | Liquid | Liquid | 21.8% | 20.0% | Present |  |
| NCCCC[C@H](N)C(=O)O.NCCCC[C@H](N)C(=O)O.NCCCC[C@H](N)C(=O)O.O=C(O)CC(O)(CC(=O)O)C(=O)O.O=C(O)CC(O)(CC(=O)O)C(=O)O [Formulation 37] | Liquid | Liquid | 22.4% | 20.0% | Present | state at 25° C. ([2]; components (A) and (B) at the compounding molar ratio shown, listed as Working example 37): liquid; n-hydrate [3]: Dihydrate |
| N=C(N)NCCC[C@H](N)C(=O)O.O=C(O)[C@H](O)[C@@H](O)[C@H](O)[C@H](O)CO [Formulation 51] | Liquid | Liquid | 23.7% | 20.0% | Present | n-hydrate [3]: Mono- |
| CSCC[C@H](N)C(=O)O [methionine] |  |  |  |  |  | isoelectric points of amino acids (values in parentheses) [5]: (5.74) |
| N[C@@H](CS)C(=O)O [cysteine] |  |  |  |  |  | isoelectric points of amino acids (values in parentheses) [5]: (5.07) |
| CCCCCCCC/C=C\CCCCCCCC(=O)[O-].[Na+] [Formulation 433, reference compound] |  |  |  |  |  | state at 25° C. ([1]; Table 3): Solid; Hygroscopicity test Moisture content after test [6]: 0.0% |
| N[C@@H](Cc1c[nH]cn1)C(=O)O.O=C(O)[C@H](O)[C@@H](O)[C@H](O)[C@H](O)CO [Formulation 93] | Liquid | Liquid | 20.4% | 20.0% | Present | state at 25° C. ([2]; components (A) and (B) at the compounding molar ratio shown, listed as Working example 93): liquid |
| N[C@@H](CO)C(=O)O.O=C(O)[C@H](O)[C@@H](O)[C@H](O)[C@H](O)CO [Formulation 243] | Liquid | Liquid | 41.6% | 20.0% | Present | state at 25° C. ([2]; components (A) and (B) at the compounding molar ratio shown, listed as Working example 243): liquid; n-hydrate [3]: Mono- |
